Assay results as given in US20100120884A1, “USE OF DITHIINE-TETRACARBOXIMIDES FOR CONTROLLING PHYTOPATHOGENIC FUNGI” (priority 2008, published 2010).

test system: not listed separately; assay: physchem; type: physicochemical; conditions: pH 2.7
Description: The determination of the logP values detailed in the tables and preparation examples hereinabove is carried out in accordance with EEC Directive 79/831 Annex V.A8 by means of HPLC (High Performance Liquid Chromatography) on a reversed-phase column (C 18). Temperature: 43° C.
The determination is carried out in the acidic range at pH 2.7, using 0.1% strength aqueous formic acid and acetonitrile (contains 0.1% formic acid) as eluents; linear gradient from 10% acetonitrile to 95% acetonitrile.
Calibration is carried out using unbranched alkan-2-ones (with 3 to 16 carbon atoms) with known logP values (determination of the logP values with reference to the retention times by linear interpolation between two successive alkanones).

chromatographic logP | SMILES | log P
4.19 | CC(C)n1c(=O)c2sc3c(=O)n(C(C)C)c(=O)c3sc2c1=O [Compound 4, 2,6-Di(propan-2-yl)-1H,5H-[1,4]dithiino[2,3-c:5,6-c′]dipyrrole-1,3,5,7(2H,6H)-tetrone] | 
3.41 | O=c1c2sc3c(=O)n(CC(F)(F)F)c(=O)c3sc2c(=O)n1CC(F)(F)F [Compound 6, 2,6-Bis(2,2,2-trifluoroethyl)-1H,5H-[1,4]dithiino[2,3-c:5,6-c′]dipyrrole-1,3,5,7(2H,6H)-tetrone] | 
4.03 | O=c1c2sc3c(=O)n(C4(C(F)(F)F)CC4)c(=O)c3sc2c(=O)n1C1(C(F)(F)F)CC1 [Compound 7, 2,6-Bis[1-(trifluoromethyl)cyclopropyl]-1H,5H-[1,4]dithiino[2,3-c:5,6-c′]dipyrrole-1,3,5,7(2H,6H)-tetrone] | 
1.13 | O=c1[nH]c(=O)c2sc3c(=O)[nH]c(=O)c3sc12 [Compound 8, 1H,5H-[1,4]Dithiino[2,3-c:5,6-c′]dipyrrole-1,3,5,7(2H,6H)-tetrone] | 
4.6 | O=c1c2sc3c(=O)n(Cc4ccccc4)c(=O)c3sc2c(=O)n1Cc1ccccc1 [Compound 11, 2,6-Dibenzyl-1H,5H-[1,4]dithiino[2,3-c:5,6-c′]dipyrrole-1,3,5,7(2H,6H)-tetrone] | 
2.55 | COCCn1c(=O)c2sc3c(=O)n(CCOC)c(=O)c3sc2c1=O [Compound 12, 2,6-Bis(2-methoxyethyl)-1H,5H-[1,4]dithiino[2,3-c:5,6-c′]dipyrrole-1,3,5,7(2H,6H)-tetrone] | 
2.27 | CCC(O)Cn1c(=O)c2sc3c(=O)n(CC(O)CC)c(=O)c3sc2c1=O (centres unmarked) [Compound 13, 2,6-Bis(2-hydroxybutyl)-1H,5H-[1,4]dithiino[2,3-c:5,6-c′]dipyrrole-1,3,5,7(2H,6H)-tetrone] | 
1.63 | CC(O)Cn1c(=O)c2sc3c(=O)n(CC(C)O)c(=O)c3sc2c1=O (centres unmarked) [Compound 14, 2,6-Bis(2-hydroxypropyl)-1H,5H-[1,4]dithiino[2,3-c:5,6-c′]dipyrrole-1,3,5,7(2H,6H)-tetrone] | 
3.86 | O=c1c2sc3c(=O)n(CCOc4ccccc4)c(=O)c3sc2c(=O)n1CCOc1ccccc1 [Compound 15, 2,6-Bis(2-phenoxyethyl)-1H,5H-[1,4]dithiino[2,3-c:5,6-c′]dipyrrole-1,3,5,7(2H,6H)-tetrone] | 
3.24 | CCOCCn1c(=O)c2sc3c(=O)n(CCOCC)c(=O)c3sc2c1=O [Compound 16, 2,6-Bis(2-ethoxyethyl)-1H,5H-[1,4]dithiino[2,3-c:5,6-c′]dipyrrole-1,3,5,7(2H,6H)-tetrone] | 
1.76 | CC(C(=O)O)n1c(=O)c2sc3c(=O)n(C(C)C(=O)O)c(=O)c3sc2c1=O (centres unmarked) [Compound 24, 2,2′-(1,3,5,7-Tetraoxo-1,3,5,7-tetrahydro-2H,6H-[1,4]dithiino[2,3-c:5,6-c′]dipyrrole-2,6-diyl)dipropanoic acid] | 
1.99 | CC(CC(=O)O)n1c(=O)c2sc3c(=O)n(C(C)CC(=O)O)c(=O)c3sc2c1=O (centres unmarked) [Compound 28, 3,3′-(1,3,5,7-Tetraoxo-1,3,5,7-tetrahydro-2H,6H-[1,4]dithiino[2,3-c:5,6-c′]dipyrrole-2,6-diyl)dibutanoic acid] | 
2.02 | O=C(O)CCCCn1c(=O)c2sc3c(=O)n(CCCCC(=O)O)c(=O)c3sc2c1=O [Compound 29, 5,5′-(1,3,5,7-Tetraoxo-1,3,5,7-tetrahydro-2H,6H-[1,4]dithiino[2,3-c:5,6-c′]dipyrrole-2,6-diyl)dipentanoic acid] | 
4.91 | O=c1c2sc3c(=O)n(-c4cccc(C(F)(F)F)c4)c(=O)c3sc2c(=O)n1-c1cccc(C(F)(F)F)c1 [Compound 31, 2,6-Bis[3-(trifluoromethyl)phenyl]-1H,5H-[1,4]dithiino[2,3-c:5,6-c′]dipyrrole-1,3,5,7(2H,6H)-tetrone] | 
3.12 | O=C(O)C(Cc1ccccc1)n1c(=O)c2sc3c(=O)n(C(Cc4ccccc4)C(=O)O)c(=O)c3sc2c1=O (centres unmarked) [Compound 32, 2,2′-(1,3,5,7-Tetraoxo-1,3,5,7-tetrahydro-2H,6H-[1,4]dithiino[2,3-c:5,6-c′]dipyrrole-2,6-diyl)bis(3-phenyl-propanoic acid)] | 
3.65 | CC(C)(O)Cn1c(=O)c2sc3c(=O)n(CC(C)(C)O)c(=O)c3sc2c1=O [Compound 34, 2,6-Bis(2-hydroxy-2-methylpropyl)-1H,5H-[1,4]dithiino[2,3-c:5,6-c′]dipyrrole-1,3,5,7(2H,6H)-tetrone] | 
3.09 | CCC(Cn1c(=O)c2sc3c(=O)n(CC(CC)OC(C)=O)c(=O)c3sc2c1=O)OC(C)=O (centres unmarked) [Compound 35, (1,3,5,7-Tetraoxo-1,3,5,7-tetrahydro-2H,6H-[1,4]dithiino[2,3-c:5,6-c′]dipyrrole-2,6-diyl)dibutane-1,2-diyl diacetate] | 
3.09 | CC(=O)OC(C)Cn1c(=O)c2sc3c(=O)n(CC(C)OC(C)=O)c(=O)c3sc2c1=O (centres unmarked) [Compound 36, (1,3,5,7-Tetraoxo-1,3,5,7-tetrahydro-2H,6H-[1,4]dithiino[2,3-c:5,6-c′]dipyrrole-2,6-diyl)dipropane-1,2-diyl diacetate] | 
2.13 | CCn1c(=O)c2sc3c(=O)[nH]c(=O)c3sc2c1=O [Compound 39, 2-Ethyl-1H,5H-[1,4]dithiino[2,3-c:5,6-c′]dipyrrole-1,3,5,7(2H,6H)-tetrone] | 
 | CCCCC(C(=O)OCC)n1c(=O)c2sc3c(=O)n(C(CCCC)C(=O)OCC)c(=O)c3sc2c1=O (centres unmarked) [Compound 40, Diethyl 2,2′-(1,3,5,7-tetraoxo-1,3,5,7-tetrahydro-2H,6H-[1,4]dithiino[2,3-c:5,6-e]dipyrrole-2,6-diyl)di-hexanoate] | log P = 4.66
1.73 | CCOC(=O)C(CC)n1c(=O)c2sc3c(=O)n(C(CC)C(=O)O)c(=O)c3sc2c1=O (centres unmarked) [Compound 41, 2-[2-(1-Ethoxy-1-oxobutan-2-yl)-1,3,5,7-tetraoxo-2,3,5,7-tetrahydro-1H,6H-[1,4]dithiino[2,3-c:5,6-c′]-dipyrrole-6-yl]butanoic acid] | 

SMILES | chromatographic logP | log P
Cn1c(=O)c2sc3c(=O)n(C)c(=O)c3sc2c1=O [Compound 1, 2,6-Dimethyl-1H,5H-[1,4]dithiino[2,3-c:5,6-c′]dipyrrole-1,3,5,7(2H,6H)-tetrone] | 2.32 | 

test system: Pyrenophora teres; assay: Pyrenophora teres test (barley)/protective; type: in vivo; conditions: protective spray, 1000 ppm active substance, evaluation 8 days after inoculation
Description: Pyrenophora teres Test (Barley)/Protective
To prepare a suitable preparation of active substance, 1 part by weight of active substance is mixed with the stated amounts of solvent and emulsifier, and the concentrate is diluted with water to the desired concentration.
To test for protective activity, young plants are sprayed with the active substance preparation at the application rate detailed. After the spray coating has dried on, the plants are sprayed with a spore suspension of Pyrenophora teres. The plants remain in an incubation cabinet for 48 hours at 20° C. and 100% relative atmospheric humidity. The plants are placed in a greenhouse at a temperature of approximately 20° C. and a relative atmospheric humidity of approximately 80%.
Evaluation is carried out 8 days after the inoculation. 0% means an efficacy which corresponds to that of the control, while an efficacy of 100% means that no disease is observed.

SMILES | efficacy [%]
Cn1c(=O)c2sc3c(=O)n(C)c(=O)c3sc2c1=O [Compound 1, 2,6-Dimethyl-1H,5H-[1,4]dithiino[2,3-c:5,6-c′]dipyrrole-1,3,5,7(2H,6H)-tetrone] | ≥ 70
